{"source": "patent US20230338398A1", "about": "“USE OF DELTA-8-THC TO TREAT INFLAMMATORY AND AUTOIMMUNE DISEASES” (UNIVERSITY OF SOUTH CAROLINA, priority 2022, published 2023)", "key": {"[1]": {"test_system": "immune cells from brain and spleens", "experiment": "Flow cytometry of immune cells from brain and spleens of EAE mice", "assay_type": "in vivo, C57BL/6 mice", "experimental": "(§1) EAE is a model for human Multiple Sclerosis. EAE was induced in 6-8 weeks old Female C57BL/6 mice through subcutaneous immunization with 100 μl of 150 μg MOG35-55 peptide (PolyPeptide Laboratories San Diego, CA, USA) along with heat killed Mycobacterium Tuberculosis 8 mg/ml (strain H37Ra) (BD, Franklin Lakes, NJ, USA), emulsified in PBS and complete Freund's adjuvant (CFA) (Fisher, Hampton, NH, USA). Mice also received two subsequent doses of 200 and 400 ng of pertussis toxin intraperitoneally on day 0 and 2, respectively (List Biological Laboratories, Campbell, CA, USA). Beginning on day 10, mice received a 100 μL intraperitoneal injection containing either a vehicle (sterile corn oil (CO) with 2% DMSO v/v) or a treatment suspension (10 mg/kg delta-8-THC in sterile CO with 2% DMSO v/v) every day till the end of the experiment. The control mice received the appropriate vehicle. On the appearance of the clinical symptoms, the animals were provided with food and water (Boost and Hydrogel) in the cage bedding to ensure their access to essential nutrients. During the experiment, animals were weighed for weight change and scored for disease progression on a daily basis. The mean body weight and clinical scores were calculated daily for each group. Clinical scores were recorded as follows: 0, healthy; 1, tail atony; 2, partial paralysis of hind limbs; 3, complete paralysis of hind limbs in combination with partial front limb paralysis; 4, tetraplegia; 5, moribund.\nBD FACSCelesta flow cytometer was used to quantify the phenotypes of immune cells from brain and spleens. Cells were stained with fluorescently labeled monoclonal antibodies purchased from Biolegend (San Diego, CA). The data obtained from flow cytometer was analyzed on FlowJo software."}, "[2]": {"test_system": "brain infiltrating mononuclear cells", "experiment": "miRNA sequencing (miRNASeq) of brain infiltrating mononuclear cells of EAE mice"}, "CB1 receptors": {"target": "CB1 receptors (Homo sapiens, UniProt P21554)", "sequence (P21554 whole entry)": "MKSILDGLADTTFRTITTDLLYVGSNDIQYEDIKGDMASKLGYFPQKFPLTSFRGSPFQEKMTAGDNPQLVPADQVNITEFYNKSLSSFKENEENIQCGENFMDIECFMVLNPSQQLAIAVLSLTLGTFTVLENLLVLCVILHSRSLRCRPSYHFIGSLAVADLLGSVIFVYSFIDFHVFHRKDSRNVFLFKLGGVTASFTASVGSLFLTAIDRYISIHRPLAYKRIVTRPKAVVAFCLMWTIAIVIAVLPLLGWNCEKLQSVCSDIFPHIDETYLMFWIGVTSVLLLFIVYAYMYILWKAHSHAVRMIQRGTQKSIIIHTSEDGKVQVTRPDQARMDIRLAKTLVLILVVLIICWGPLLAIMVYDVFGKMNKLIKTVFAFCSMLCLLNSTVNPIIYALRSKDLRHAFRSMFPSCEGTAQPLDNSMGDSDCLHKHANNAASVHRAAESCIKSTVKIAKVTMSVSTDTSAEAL", "conditions": "CB1 receptors located in the CNS; cited from earlier work"}, "[3]": {"test_system": "Experimental Autoimmune Encephalomyelitis (EAE)", "experiment": "Experimental Autoimmune Encephalomyelitis (EAE) model: clinical score and body weight", "assay_type": "in vivo", "conditions": "EAE C57BL/6 mice, 10 mg/kg intraperitoneally every day from day 10, vs vehicle", "experimental": "6-8 weeks old Female C57BL/6 mice were purchased from Jackson Laboratory (Bar Harbor, ME). Animals colonies were maintained in accordance with Federal regulations and guidelines set by the animal facility of the University of South Carolina Institutional Animal Care and Use Committee (IACUC). Mice were housed in a single room under controlled temperature (22° C.), identical SPF, 50% relative humidity, and photoperiods (12:12 hours light/dark cycle). Animals were allowed unlimited access (ad libitum feeding) to autoclaved drinking water and a standard irradiated soy-free mouse chow. The health of the animals was monitored daily by the veterinarian in the animal facility.\nas §1, with “Beginning on day 10, mice received a 100 μL intraperitoneal injection containing either a vehicle (sterile corn oil (CO) with 2% DMSO v/v) or a treatment suspension (10 mg/kg delta-8-THC in sterile CO with 2% DMSO v/v) every day till the end of the experiment. The control mice received the appropriate vehicle. On the appearance of the clinical symptoms, the animals were provided with food and water (Boost and Hydrogel) in the cage bedding to ensure their access to essential nutrients.” left out\nThe data were expressed as mean±SEM calculated using GraphPad Prism 9 (GraphPad Inc, La Jolla, CA) and the data sets for all experiments represent three to four experimental replicates per group. […]"}, "[4]": {"test_system": "brain-infiltrating CD4+ T cells", "experiment": "miRNA microarray of CD4+ T cells isolated from the brain of EAE mice", "assay_type": "in vivo, C57BL/6 mice", "experimental": "as §1\n(§2) Mononuclear cells isolated from brain were labeled with Phycoerythrin-conjugated (PE-Conjugated) anti-CD4 antibody purchased from Biolegends. […]\n(§3) To analyze gene expression, total RNA was purified from brain infiltrating CD4^+ cells using miRNeasy micro kit according to the manufacturer's instructions. RNA purity and concentration were measured by using Nanodrop spectrophotometer from Thermoscientific. […] The results obtained from qRT-PCR were calculated using delta delta Ct (ΔΔCt) method."}, "[5]": {"test_system": "brain-infiltrating CD4+ T cells", "experiment": "qRT-PCR of brain-infiltrating CD4+ T cells from EAE mice", "assay_type": "in vivo, C57BL/6 mice", "experimental": "as §1, §2, §3"}, "[6]": {"conditions": "CD4+ T cells isolated from the brain of EAE mice, miRNA microarray"}}, "note": "Entries after “also recorded” stand apart in the source; their conditions may differ.", "data": [{"smiles": "CCCCCc1cc(O)c2c(c1)OC(C)(C)[C@@H]1CC=C(C)C[C@@H]21", "note": "[Δ-8-THC, delta-8-tetrahydrocannabinol]", "values": [{"measurement": "IL-17+ CD4+ T cells in the brains", "setting": "[1]; brain", "value": "decrease"}, {"measurement": "RORγt+ (Th17) cells in the brains", "setting": "[1]; brain", "value": "decrease"}, {"measurement": "Th1 cells (T-bet) in the brain", "setting": "[1]; brain, expression of T-bet", "value": "not in the brain; also recorded: decrease"}, {"measurement": "IL-17+ CD4+ T cells in the brains", "setting": "[1]; brain, listed as Δ8-THC", "value": "decreased"}, {"measurement": "RORγt+ (Th17) cells in the brains", "setting": "[1]; brain, listed as Δ8-THC", "value": "decreased"}, {"measurement": "percentage of macrophages in the brain", "setting": "[1]; brain-infiltrating pro-inflammatory macrophages", "value": "decreased"}, {"measurement": "percentage of CD4+ T cells in the brain", "setting": "[1]; flow cytometry, brain", "value": "decrease"}, {"measurement": "percentage of CD4+ T cells in the spleens", "setting": "[1]; flow cytometry, spleen", "value": "decrease"}, {"measurement": "IL-17+ CD4+ T cells in the spleens", "setting": "[1]; spleen", "value": "decreased"}, {"measurement": "RORγt+ (Th17) cells in the spleens", "setting": "[1]; spleen", "value": "decrease"}, {"measurement": "Th1 cells expressing IFN-gamma in the spleens", "setting": "[1]; spleen", "value": "decrease"}, {"measurement": "percentage of macrophages in the spleens", "setting": "[1]; spleen", "value": "decrease"}, {"measurement": "Th1 cells (T-bet) in the spleen", "setting": "[1]; spleen, expression of T-bet", "value": "decrease"}, {"measurement": "RORγt+ (Th17) cells in the spleens", "setting": "[1]; spleen, listed as Δ8-THC", "value": "decreased"}, {"measurement": "miRNA expression (miRNASeq)", "setting": "[2]", "value": "regulates a distinct set of miRNAs compared to Δ-9-THC; also recorded: unique miRNA signature profile distinct from Δ-9-THC; also recorded: differential expression of miRNAs"}, {"measurement": "activity at CB1 receptors", "setting": "CB1 receptors", "value": "partial agonist"}, {"measurement": "body weight", "setting": "[3]", "value": "increase; also recorded: attenuated"}, {"measurement": "disease clinical scores / paralysis", "setting": "[3]", "value": "highly significant reduction; also recorded: attenuated; also recorded: decreased levels of paralysis"}, {"measurement": "body weight", "setting": "[3]; listed as Δ8-THC", "value": "gain weight"}, {"measurement": "expression of miR-21, miR-27a, miR-29a, miR-30a, miR-31, miR-146a, miR-155, and miR-326", "setting": "[4]; [6]", "value": "downregulated"}, {"measurement": "expression of miR-let7, miR-130a, miR-181a, miR-328a and miR-448", "setting": "[4]; [6]", "value": "upregulating"}, {"measurement": "miR expression profile", "setting": "[4]; brain-infiltrating CD4+ T cells from EAE mice, compared to the controls", "value": "distinct signature profile"}, {"measurement": "Foxp3 expression", "setting": "[5]", "value": "increase"}, {"measurement": "IL-10 expression", "setting": "[5]", "value": "increased"}, {"measurement": "TGF-β expression", "setting": "[5]", "value": "increased"}]}]}
